Experiment [1] relates to NHEK keratinocytes. Description: ROS production in NHEK keratinocytes subjected to UVA (H2DCFDA probe). To be noted: UVA 5 J/cm^2, extract at 0.29%, active at 0.3%, ascorbic acid at 300 μg/mL, 24 h pre-treatment, FIG. 2. The experiment is classed as cell-based, Human. As to the method:
The Normal Human foreskin-derived Epidermal Keratinocytes isolated from 3 Caucasian donors (NHEKs, Lonza, 00192906) were grown in Epilife medium (Fisher Scientific, M-EPI-500-A) supplemented with Human Keratinocyte Growth Supplement (HKGS, Fisher Scientific, S-001-5). The cells were maintained in a humidified incubator at 37° C. with a 5% CO2 atmosphere. The detection and quantification of the intracellular ROS amounts from 2D NHEK keratinocytes or 3D RHE were performed using the H2DCFDA (2′-7′dichlorodihydrofluorescein diacetate; Fisher Scientific; D399) probe. After its diffusion into the live cells, the probe is deacetylated by intracellular esterases to a non-fluorescent compound. This compound can be oxidized by ROS and converted into the highly fluorescent DCF (2′-7′ dichlorofluorescein). The production of ROS by cells can be therefore measured through the level of fluorescence emitted by the oxidized dye. NHEK keratinocytes in 24-well plates were pre-treated in the culture medium during 24 h by the compounds at 1 concentration or with the antioxidant reference, ascorbic acid at 300 μg/mL. […] Following the challenge, the fluorescence was measured (excitation: 475 nm; emission: 500-550 nm) with a fluorescence microplate reader (Glomax Explorer, Promega). […]

Experiment [2] deals with pro-MMP1. Description: Pro-MMP1 release from NHDFs fibroblasts (ELISA). The experiment is classed as cell-based, Human. To be noted: NHDFs treated 72 h; B 0.0079%, E 0.029%, A 0.03%; TGF-β1 20 ng/ml; TNFα 20 ng/mL + IL1β 2.5 ng/ml; vs untreated control; FIG. 3. As to the method:
The Normal Human foreskin-derived Dermal Fibroblasts (NHDFs; ATCC, CRL-2522) cells were grown in Dulbecco's Modified Eagle Medium (DMEM, Gibco/Life Technologies, 31885) supplemented with 10% of Foetal Bovine Serum (FBS, Gibco/Life Technologies, 10270). The cells were maintained in a humidified incubator at 37° C. with a 5% CO2 atmosphere.
NHDF fibroblasts were cultivated on 24-well plates in complete culture medium (containing 10% FBS) 24 h before the treatment with the compounds. Cells were then treated for 72 h with the test compounds in culture medium, in absence of FBS. In parallel, reference treatments were applied according to the same method (TGF-β at 20 ng/ml; combination of TNFα at 20 ng/ml and IL1β at 2.5 ng/ml). All the treatments were performed in triplicate of culture (n=3).
At the end of the 72 h of treatments, all the supernatants were collected, aliquoted and stored at −20° C. until further use in specific ELISA assays. Through these assays, the quantifications of the extracellular releases of pro-MMP1 (R&D systems, DMP100) produced by NHDFs fibroblasts were assessed according to the supplier's specifications.

The results in this text go back to US20260191764A1, “COMBINATION OF A LACTOBACILLUS STRAIN AND A GRAPE EXTRACT FOR USE AS AN ANTI-AGEING AGENT” (CEPAGES, priority 2022, published 2026).

Take `O=C1O[C@H]([C@@H](O)CO)C(O)=C1O` [ascorbic acid]: the ROS production entry in experiment [1] was “partially suppressed this effect”.
In the case of “TGF-β1: negative reference at 20 ng/ml in the pro-MMP1 assay”, the “pro-MMP1 release in supernatant” value in experiment [2] is on record as “reduced”.
